Where “and” joins values, the source holds several entries; their conditions need not be identical. Identical values can stand only once. Like-named read-outs stand apart in the source and are kept apart here.
What was measured:
[1] = biological target: T1, human albumin (Homo sapiens, UniProt P02768); test: Inhibition of albumin denaturation (IAD); format: biochemical
T1 construct: purchased BB-NCIPD Ltd., Sofia, Bulgaria
Method: The in vitro analysis of the anti-inflammatory activity was evaluated by measuring the inhibition of albumin denaturation (IAD). The analysis was carried out according to the method of Manolov et al. with minor modifications. The experiment was conducted using human albumin. A 1% albumin solution was prepared in distilled water at pH 7.4. Test samples and standards were initially dissolved in 1 mL of DMSO, then supplemented with 1% Tween 80 in PBS to achieve a final stock solution concentration of 1000 μg/mL. Subsequently, a series of working solutions at varying concentrations (20–500 μg/mL) in 1% Tween 80/PBS were prepared. The reaction mixture consisted of 2 mL of the test sample or standard at varying concentrations and 1 mL of 1% albumin. The mixture was incubated at 37 °C for 15 min, followed by heating at 70 °C for 15 min in a water bath. After cooling, the turbidity was measured at 660 nm using a spectrophotometer (CamSpec M508, Leeds, UK). Ibuprofen served as the standard. The experiment was conducted in triplicate. The percentage inhibition of albumin denaturation (IAD) was calculated against the control. The control sample consisted of albumin at the same concentration dissolved in distilled water.(3) %IAD=Ablank−Asample/Ablank×100

[2] = Hydroxyl radical scavenging activity (HRSA), Fenton reaction / 1,10-phenanthroline; format: biochemical; settings: IC50 ± SD, triplicate; 60 min at 37 °C, pH 7.40
Method: The hydroxyl radical-scavenging activity of the samples was measured according to the method of Luo et al.. In this system, hydroxyl radicals were generated by the Fenton reaction. Hydroxyl radicals could oxidize Fe^2+ into Fe^3+, and only Fe^2+ could be combined with 1,10-phenanthroline to form a red compound (1,10-phenanthroline-Fe^2+) with a maximum absorbance at 536 nm. The concentration of the hydroxyl radical was reflected by the degree of decolorization of the reaction solution. In test tubes 1 mL of 1,10-phenanthroline solution (0.75 mM), 2.0 mL of phosphate buffer saline (0.2 M, pH 7.40), and 1 mL of the samples/standard were added and mixed homogeneously. A total of 1.0 mL of the FeSO4 solution (0.75 mM) was then pipetted into the mixture. The reaction was initiated by adding 1.0 mL H2O2 (0.03% v/v). After incubation at 37°C for 60 min in a water bath, the absorbance of the reaction mixture was measured at 536 nm against reagent blank. The reaction mixture without any antioxidant was used as the negative control, and without H2O2 was used as the blank. The hydroxyl radical scavenging activity (HRSA) was calculated by the following formula:(2) I,%(HRSA)=AS−An/Ab−An×100 where As, An, and Ab were the absorbance values determined at 536 nm of the sample, the negative control, and the blank after reaction, respectively.

[3] = Lipophilicity as RM values by reversed-phase thin-layer chromatography (RP-TLC); format: physicochemical
Method: In this study, the lipophilicity of the synthesized trimetazidine–profen derivatives was evaluated using a practical and widely applied technique—reversed-phase thin-layer chromatography (RP-TLC)—following the methodology outlined by Pontiki and Hadjipavlou-Litina.
The lipophilicity of the trimetazidine–profen derivatives was determined following the procedure described by Pontiki and Hadjipavlou-Litina.

[4] = Hydrogen peroxide scavenging activity (HPSA); format: biochemical; settings: IC50 ± SD, triplicate; 10 min at 37 °C, pH 7.4
Method: The Manolov et al. approach was used to evaluate a capacity to scavenge hydrogen peroxide. A 43 mM solution of H2O2 was prepared in a potassium phosphate buffer solution (0.2 M, pH 7.4). The analysis of the samples was carried out as follows: in test tubes, 0.6 mL H2O2 (43 mM), 1 mL sample/standard with different concentrations (20–1000 µg/mL), and 2.4 mL potassium phosphate buffer solution were mixed. The mixture was stirred and incubated in the dark for 10 min at 37 °C. Absorbance was measured at 230 nm with a spectrophotometer (CamSpec M508, Leeds, UK) against a blank solution containing the phosphate buffer and H2O2 without the sample. […] The percentage HPSA of the samples was evaluated by comparing with a blank sample, and was calculated using the following formula:(1) I,%(HPSA)=Ablank−(ATS−ACS)/Ablank×100 where Ablank is the absorbance of the blank sample, ACS is the absorbance of the control sample, and ATS is the absorbance of the test sample.

[5] = Acute rat toxicity prediction using GUSAR software
Text: Given the potential toxicity concerns associated with both trimetazidine and profens, including rare gastrointestinal, hepatic, renal, and central nervous system effects, we evaluated the acute toxicity of the newly synthesized trimetazidine–profen hybrid molecules.
GUSAR software was developed to generate QSAR/QSPR models using appropriate training datasets. It enables an in silico prediction of LD50 values in rats for four routes of administration: oral, intravenous, intraperitoneal, and subcutaneous.
We employed the software to perform quantitative in silico predictions of the LD50 values for the synthesized trimetazidine–profen hybrids 3a–e.

[6] = composite across IP, IV, oral, SC GUSAR predictions, lower = more toxic, read-out: geometric mean of the four LD50 values

T1 sequence (P02768 25-609): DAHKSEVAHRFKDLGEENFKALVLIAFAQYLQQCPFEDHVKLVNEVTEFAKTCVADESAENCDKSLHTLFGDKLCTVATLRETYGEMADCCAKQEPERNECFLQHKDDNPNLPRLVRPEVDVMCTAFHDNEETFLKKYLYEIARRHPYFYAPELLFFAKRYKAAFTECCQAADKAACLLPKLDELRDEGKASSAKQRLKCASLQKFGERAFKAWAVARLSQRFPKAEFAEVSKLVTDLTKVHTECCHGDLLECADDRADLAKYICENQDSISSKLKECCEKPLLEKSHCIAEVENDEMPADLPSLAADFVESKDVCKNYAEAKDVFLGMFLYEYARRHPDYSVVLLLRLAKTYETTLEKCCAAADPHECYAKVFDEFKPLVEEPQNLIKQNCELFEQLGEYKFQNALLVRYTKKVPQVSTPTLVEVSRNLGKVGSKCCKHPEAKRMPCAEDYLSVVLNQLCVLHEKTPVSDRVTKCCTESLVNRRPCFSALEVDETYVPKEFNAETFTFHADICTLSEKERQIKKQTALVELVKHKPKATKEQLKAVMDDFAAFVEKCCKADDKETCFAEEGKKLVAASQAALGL

| Structure (SMILES) | IC50 [1] [µM] | HRSA IC50 [2] | RM ± SD [3] | HPSA IC50 [4] [mg/L] | LD50 [5, 6] [mg/kg] | LD50 [5] [mg/kg] |
| --- | --- | --- | --- | --- | --- | --- |
| COc1ccc(CN2CCN(C(=O)C(C)c3ccc(CC(C)C)cc3)CC2)c(OC)c1OC (stereo not drawn) [3a, 2-(4-isobutylphenyl)-1-(4-(2,3,4-trimethoxybenzyl)piperazin-1-yl)propan-1-one] | 244 | 77.98 mg/L | 1.68 ± 0.021 and 1.68 | 97.55 ± 1.21 | ~212 |  |
| COc1ccc(CN2CCN(C(=O)C(C)c3cccc(C(=O)c4ccccc4)c3)CC2)c(OC)c1OC (stereo not drawn) [3b, 2-(3-benzoylphenyl)-1-(4-(2,3,4-trimethoxybenzyl)piperazin-1-yl)propan-1-one] | 234 | 74.72 ± 0.41 mg/L and 74.6 to 74.7 mg/L | 1.55 ± 0.015 and 1.55 | 93.56 ± 1.29 | ~398 |  |
| COc1ccc2cc(C(C)C(=O)N3CCN(Cc4ccc(OC)c(OC)c4OC)CC3)ccc2c1 (stereo not drawn) [3c, 2-(6-methoxynaphthalen-2-yl)-1-(4-(2,3,4-trimethoxybenzyl)piperazin-1-yl)propan-1-one] | 227 | 71.13 mg/L | 1.61 ± 0.020 and 1.61 | 93.07 ± 0.43 | ~391 |  |
| COc1ccc(CN2CCN(C(=O)C(C)c3ccc(-c4ccccc4)c(F)c3)CC2)c(OC)c1OC (stereo not drawn) [3d, 2-(2-fluoro-[1,1’-biphenyl]-4-yl)-1-(4-(2,3,4-trimethoxybenzyl)piperazin-1-yl)propan-1-one] | 235 | 74.59 ± 1.02 mg/L and 74.6 to 74.7 mg/L | 1.45 ± 0.008 and 1.45 | 135.25 ± 13.19 | ~287 |  |
| COc1ccc(CN2CCN(C(=O)C(C)c3ccc4c(c3)[nH]c3ccc(Cl)cc34)CC2)c(OC)c1OC (stereo not drawn) [3e, 2-(6-chloro-9H-carbazol-2-yl)-1-(4-(2,3,4-trimethoxybenzyl)piperazin-1-yl)propan-1-one] | 225 | 92.56 mg/L | 1.55 ± 0.016 and 1.55 | 99.75 ± 0.75 | ~369 |  |
| CC(C)Cc1ccc(C(C)C(=O)O)cc1 (stereo not drawn) [Ibuprofen, reference compound] |  |  | 1.11 ± 0.01 |  |  |  |
| COc1ccc(CN2CCNCC2)c(OC)c1OC [compound 1, 1-[(2,3,4-trimethoxyphenyl)methyl]piperazine, reference compound] |  |  |  |  |  | ~246 |
